Experimental findings from patent US8802678B2, “Carbonylated (aza) cyclohexanes as dopamine D3 receptor ligands” (Bioprojet, priority 2006, dated 2014) are described below.

In the case of `CC(=O)CN1CCC(CCN2CCN(c3cc(F)cc(Cl)c3)CC2)CC1` [Example 581, 1-(4-{2-[4-(3-Chloro-5-fluorophenyl)piperazin-1-yl]ethyl}piperidin-1-yl)propan-2-one], the melting point was found to be 107 °C.

Molecule `COc1ccc(N2CCN(CC[C@H]3CC[C@H](NC(=O)CCCC#N)CC3)CC2)cc1` [Example 582, 4-Cyano-N-(4-{2-[4-(4-methoxyphenyl)piperazin-1-yl]ethyl}cyclohexyl)butanamide] registered a melting point of 200 °C.

`CC(=O)CN1CCC(CCN2CCN(c3ccc4c(c3)OCO4)CC2)CC1` [Example 584, 1-{4-[2-(4-Benzo[1,3]dioxol-5-ylpiperazin-1-yl)ethyl]piperidin-1-yl}propan-2-one] registered a melting point of 113 °C.

Consider `N#CCC(=O)N[C@H]1CC[C@@H](CCN2CCN(c3cc(C(F)(F)F)ccc3F)CC2)CC1` [Example 586, 2-Cyano-N-(4-{2-[4-(2-fluoro-5-trifluoromethylphenyl)piperazin-1-yl]ethyl}cyclohexyl)acetamide], for which the melting point worked out at 152 °C.

`CC(=O)CN1CCC(CCN2CCN(c3ccc(C(F)(F)F)cc3)CC2)CC1` [Example 587, 1-(4-{2-[4-(4-Trifluoromethylphenyl)piperazin-1-yl]ethyl}pipericin-1-yl)propan-2-one] showed a melting point of 104 °C.

The molecule `CC(=O)CN1CCC(CCN2CCN(c3ccc(F)c(Cl)c3)CC2)CC1` [Example 592, 1-(4-{2-[4-(3-Chloro-4-fluorophenyl)piperazin-1-yl]ethyl}piperidin-1-yl)propan-2-one] gave a melting point of 92 °C.

The molecule `N#CCC(=O)N[C@H]1CC[C@H](CCN2CCN(c3ccc(F)c(Cl)c3)CC2)CC1` [Example 594, N-(4-{2-[4-(3-Chloro-4-fluorophenyl)piperazin-1-yl]ethyl}cyclohexyl)-2-cyanoacetamide] came in with a melting point of 176 °C.

In turn, `N#CCCCC(=O)N[C@H]1CC[C@H](CCN2CCN(c3ccc(F)c(Cl)c3)CC2)CC1` [Example 598, N-(4-{2-[4-(3-Chloro-4-fluorophenyl)piperazin-1-yl]ethyl}cyclohexyl)-4-cyanobutanamide] displayed a melting point of 142 °C.

For the molecule `N#CCC(=O)N[C@H]1CC[C@H](CCN2CCN(c3cc(C#N)ccc3Cl)CC2)CC1` [Example 599, N-(4-{2-[4-(2-Chloro-5-cyanophenyl)piperazin-1-yl]ethyl}cyclohexyl)-2-cyanoacetamide], the melting point is 225 °C.

With `N#CCCCC(=O)N[C@H]1CC[C@H](CCN2CCN(c3cc(C#N)ccc3Cl)CC2)CC1` [Example 601, N-(4-{2-[4-(2-Chloro-5-cyanophenyl)piperazin-1-yl]ethyl}cyclohexyl)-4-cyanobutanamide], the melting point was determined as 206 °C.

In turn, `NC(=O)CCC(=O)N[C@H]1CC[C@H](CCN2CCN(c3ccc(F)c(Cl)c3F)CC2)CC1` [Example 602, N-(4-{2-[4-(3-Chloro-2,4-difluorophenyl)piperazin-1-yl]ethyl}cyclohexyl)succinamide] returned a melting point of 257 °C.

Turning to `CC(=O)CN1CCC(CCN2CCN(c3cccc(C(C)=O)c3)CC2)CC1` [Example 603, 1-(4-{2-[4-(3-Acetylphenyl)-piperazin-1-yl]ethyl}piperidin-1-yl)propan-2-one], the melting point came to 85 °C.

In the case of `CCC(=O)c1cccc(N2CCN(CCC3CCN(CC(C)=O)CC3)CC2)c1` [Example 604, 1-[3-(4-{2-[1-(2-Oxopropyl)piperidin-4-yl]ethyl}piperazin-1-yl)phenyl]propan-1-one], the melting point came to 68 °C.

`CC(=O)CN1CCC(CCN2CCN(c3cccc(C(C)O)c3)CC2)CC1` (centres unmarked) [Example 606, 1-[4-(2-{4-[3-(1-Hydroxyethyl)phenyl]piperazin-1-yl}ethyl)piperidin-1-yl]propan-2-one] gave a melting point of 97 °C.

The molecule `CCC(O)c1cccc(N2CCN(CCC3CCN(CC(C)=O)CC3)CC2)c1` (centres unmarked) [Example 607, 1-[4-(2-{4-[3-(1-Hydroxypropyl)phenyl]piperazin-1-yl}ethyl)piperidin-1-yl]propan-2-one] had a melting point of 83 °C.

As to `CC(=O)CN1CCC(CCN2CCN(c3cccc(C(O)C(C)C)c3)CC2)CC1` (centres unmarked) [Example 608, 1-[4-(2-{4-[3-(1-Hydroxy-2-methylpropyl)phenyl]piperazin-1-yl}ethyl)piperidin-1-yl]propan-2-one], the melting point is 78 °C.

On to `N#CCC(=O)N[C@H]1CC[C@@H](CCN2CCN(c3ccc(C(F)(F)F)cc3)CC2)CC1` [Example 613, 2-Cyano-N-(4-{2-[4-(4-trifluoromethylphenyl)piperazin-1-yl]ethyl}cyclohexyl)acetamide], for which the melting point was found to be 156 °C.

The molecule `COCCCC(=O)N[C@H]1CC[C@H](CCN2CCN(c3cc(C(F)(F)F)ccc3F)CC2)CC1` [Example 616, N-(4-{2-[4-(2-Fluoro-5-trifluoromethylphenyl)piperazin-1-yl]ethyl}cyclohexyl)-4-methoxybutanamide] displayed a melting point of 177 °C.

As for `CC(=O)CN1CCC(CCN2CCN(c3ccc(C)c(Cl)c3)CC2)CC1` [Example 618, 1-(4-{2-[4-(3-Chloro-4-methylphenyl)piperazin-1-yl]ethyl}piperidin-1-yl)propan-2-one], the melting point was found to be 103 °C.

`CC(=O)CN1CCC(CCN2CCN(c3ccc(F)c(Cl)c3F)CC2)CC1` [Example 623, 1-(4-{2-[4-(3-Chloro-2,4-difluorophenyl)piperazin-1-yl]ethyl}piperidin-1-yl)propan-2-one] returned a melting point of 82 °C.

For the molecule `NC(=O)CCC(=O)N[C@H]1CC[C@H](CCN2CCN(c3cc(C(F)(F)F)ccc3F)CC2)CC1` [Example 631, N-(4-{2-[4-(2-Fluoro-5-trifluoromethylphenyl)piperazin-1-yl]ethyl}cyclohexyl)succinamide], the melting point was 238 °C.

`CC(=O)CN1CCC(CCN2CCN(c3cccc(CO)c3)CC2)CC1` [Example 640, 1-(4-{2-[4-(3-Hydroxymethylphenyl)piperazin-1-yl]ethyl}piperidin-1-yl)propan-2-one] displayed a melting point of 84 °C.

Molecule `CC(=O)CN1CCC(CCN2CCN(c3ccc4c(c3)CCCCC4)CC2)CC1` [Example 642, 1-(4-{2-[4-(6,7,8,9-Tetrahydro-5H-benzocyclohepten-2-yl)piperazin-1-yl]ethyl}piperidin-1-yl)propan-2-one] showed a melting point of 98 °C.

`N#CCCC(=O)N[C@H]1CC[C@H](CCN2CCN(c3ccc(C(F)(F)F)cc3)CC2)CC1` [Example 643, 3-Cyano-N-(4-{2-[4-(4-trifluoromethylphenyl)piperazin-1-yl]ethyl}cyclohexyl) propanamide] registered a melting point of 207 °C.

The molecule `N#CCCC(=O)N[C@H]1CC[C@H](CCN2CCN(c3cccc(C#N)c3)CC2)CC1` [Example 644, 3-Cyano-N-(4-{2-[4-(3-cyanophenyl)piperazin-1-yl]ethyl}cyclohexyl)propanamide] gave a melting point of 160 °C.

Molecule `N#CCC(=O)N[C@H]1CC[C@H](CCN2CCN(c3ccc(C(F)(F)F)cc3F)CC2)CC1` [Example 645, 2-Cyano-N-(4-{2-[4-(2-fluoro-4-trifluoromethylphenyl)piperazin-1-yl]ethyl}cyclohexyl) acetamide] came in with a melting point of 212 °C.
